Laboratory results as given in patent US20240228491A1, “METHIONINE ADENOSYLTRANSFERASE INHIBITOR, PREPARATION METHOD THEREFOR AND APPLICATION THEREOF” (SCINNOHUB PHARMACEUTICAL CO., LTD., priority 2021, published 2024).

How the values were obtained:
MAT2a = MAT2a (Homo sapiens (Human), UniProt P31153); assay: MAT2a enzymatic activity test (colorimetric assay); assay type: biochemical; settings: OD620, 150 min reaction, read-out: IC50 against MAT2a
Protocol: The Colorimetric assay method was used to detect the IC50 value of the tested compounds on MAT2a.
The specific steps were as follows: The compounds having the test starling concentration of 1 μM or 10 μM were diluted into 10 concentration points in a 3-fold gradient. 250 nL of the solutions of the compounds to be tested with 10 different concentrations were taken and added into a 384 well plate for later use. 20 μg/mL of MAT2a enzyme solution was prepared with Assay buffer (50 mM Tris, 50 mM KCl, 10 mM MgCl2, 0.05% polyoxyethylene lauryl ether, pH 8.0). 15 μL of the MAT2a enzyme solution at 20 μg/mL was add into the wells of the compounds to be tested at different concentrations; and 15 μL of Assay buffer was added into the negative control well. An incubation was carried out for 15 minutes after shaking for mixing well. A mixed substrate solution (comprising 400 μM ATP and 600 μM L-Methionine) was prepared with Assay buffer. 10 μL of the mixed substrate solution was added to the positive control well, the compound to be tested well, and the negative control well, respectively, and the reaction began, for a reaction time of 150 min. Then, 50 μL of the reaction stop solution (BIOMOL Green™ Reagent Enzo lifesciences, Cargo No. BML-AK111-1000) was added to stop the reaction, followed by being centrifuged at 1000 rpm for 60 s and then being incubated for 15 min. OD620 was read and data were processed.
By using the log value of the concentration as the X-axis and the inhibition % as the Y-axis, the IC50 value of each compound against enzyme activity was obtained through employing the log(inhibitor) vs. response-Variable slope fitting dose-effect curve of the analysis software GraphPad Prism 5.

KP-4 cells = assay: Inhibitory activity test of KP-4 cells; assay type: cell-based; settings: Homo sapiens, 144 h incubation, read-out: KP-4 cell inhibitory activity IC50
Protocol: On day 1, cell seeding: after digestion of the cells with trypsin, the cells were resuspended to 1*10^4/mL with RPMI1640 complete medium (HyClone Company, Cat. No. SH30809.01) supplemented with 10% FBS (Gibco, 10099141C), mixed evenly, and added into the 96-well plate at 100 μL/well. The plate was put back to the incubator for the adherent growth of cells. On day 2, the addition of the compounds to be tested: 100 μL of the complete medium containing the compounds (the concentration of the compound in the medium was formulated as follows: 3-fold gradient dilution from 60 μM, 10 concentration gradients in total) was added, incubated for 144 hours at 37° C., 5% CO2. On day 8, the cell culture plates were taken out from incubator and equilibrated to room temperature, excess medium was pipetted from the wells so that 50 μL of supernatant was retained, and 50 μL of CellCounting-Lite 2.0 (Nanjing Vazyme Biotech Co., Ltd., Cat. No. DD1101) reagent was added per well, and the cells were fully lysed by shaking at room temperature for 10 min, and incubated for 5 min to detect the fluorescence intensity.
(§1) % Inhibition=100−(signal of the well with the compound to be tested−signal of the well with only medium and free of cells)/(signal of the well with cells but without addition of the compound−signal of the well with only medium and free of cells)×100.
(§2) The log value of concentration was used as the X-axis and % Inhibition was used as the Y-axis, so as to fit the dose-effect curve and calculate the IC50 value using nonlinear regression (dose response−variable slope) in the analysis software GraphPad Prism 8.

HCT116 MTAP-/- cells = assay: Activity test of HCT116 MTAP gene homozygous deletion cells (CellTiter-Glo); assay type: cell-based; settings: Homo sapiens, HCT-116, 120 h incubation, read-out: HCT116 MTAP-/- Cell IC50
Protocol: On day 1, cell seeding: after digestion of the cells with trypsin, the cells were resuspended to the desired density with the complete medium (RPMI-1640 supplemented with 10% FBS; the brand of FBS is EXCELL, Cat. No. FND500; the brand of RPMI-1640 is ATCC, Cat. No. 30-2001), mixed evenly, and added into the 96-well plate at 100 μL/well with a cell density of 1000-3000 cells per well. The plate was put back to the incubator for the adherent growth of cells. On day 2, the addition of the compounds to be tested: before the addition of the compounds, the cells were starved with serum-free medium for 4 h, then the complete medium containing the corresponding concentration of compounds was added thereto, and the cells were incubated at 37° C., 5% CO2 for 120 h. On day 7, the cell culture plates were taken out from incubator and equilibrated to room temperature. 50 μL of CellTiter-Glo (Promega Company, Cat. No. G7571) reagent was added per well, and the cells were fully lysed by shaking at room temperature for 2 min, and then incubated for another 60 min to detect the fluorescence intensity. Calculation formula:
as §1
The fitting dose-effect curve of the analysis software GraphPad Prism 5 was used to give IC50 values of the individual compounds against cellular activity.

DOHH-2 cells = assay: Inhibitory activity test of DOHH-2 cells; assay type: cell-based; settings: Homo sapiens, 120 h incubation, CellTiter-Glo, read-out: DOHH-2 cell inhibitory activity IC50
Protocol: On day 1, cell seeding: cells were resuspended to the desired density with DMEM complete medium (Gibico, Cat. No. 10569010) supplemented with 10% FBS (Gibco, 10099141C), mixed evenly, and added into the 384-well plate at 30 μL/well with a cell density of 800/well. The compounds to be tested were added as follows: 30 nL of DMSO solution containing the compound (the concentration of the compound in which was formulated as: 3-fold gradient dilution from 10 mM, 10 concentration points in total) was added, incubated for 120 h at 37° C., 5% CO2. On day 6, the cells treated with compounds were removed and equilibrated to room temperature, 30 μL of CellTiter-Glo (Promega company, Cat. No. G7573) reagent was added per well, and the cells were fully lysed by shaking at room temperature, and then incubated in dark at 37° C., 5% CO2 for 30 min, to detect the fluorescence intensity.
% Inhibition=100−(signal of the well with the compound to be tested−signal of the well with only medium and free of cells)/(signal of the well with cells but without the addition of the compound−signal of the well with only medium and free of cells)×100.
as §2

Chain of MAT2a (P31153 whole entry): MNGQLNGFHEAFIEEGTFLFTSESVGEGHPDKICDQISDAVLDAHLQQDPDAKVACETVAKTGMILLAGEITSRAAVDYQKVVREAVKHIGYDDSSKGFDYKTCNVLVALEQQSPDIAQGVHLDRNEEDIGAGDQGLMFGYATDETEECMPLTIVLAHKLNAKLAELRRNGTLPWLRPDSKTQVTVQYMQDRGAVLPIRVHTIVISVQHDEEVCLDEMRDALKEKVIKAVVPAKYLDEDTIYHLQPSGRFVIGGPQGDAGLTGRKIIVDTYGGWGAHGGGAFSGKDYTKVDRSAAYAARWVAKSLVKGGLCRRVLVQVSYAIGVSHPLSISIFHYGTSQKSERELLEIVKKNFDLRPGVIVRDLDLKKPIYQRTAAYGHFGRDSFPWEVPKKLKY

Row | IC50 (MAT2a) | IC50 (KP-4 cells) | IC50 (HCT116 MTAP-/- cells) | Compound | IC50 (DOHH-2 cells)
1 | 18.1 nM | 910 nM | – | Nc1c(-n2cccn2)c(=O)n(-c2ccc(Cl)cc2)c2nc(C(F)(F)F)ccc12 [Example 38] | –
2 | 16.5 nM | 610 nM | 23 nM | Cn1cnc2ccc(-c3c(N)c4ccc(C(F)(F)F)nc4n(-c4ccc(Cl)cc4)c3=O)cc21 [Example 23] | –
3 | 13.3 nM | 1220 nM | 13 nM | Cn1cc2cc(-c3c(N)c4ccc(C(F)(F)F)nc4n(-c4ccc(Cl)cc4)c3=O)ccc2n1 [Example 25] | 507 nM
4 | 13.6 nM | 550 nM | 15.2 nM | COCCn1ncc2cc(-c3c(N)c4ccc(C(F)(F)F)nc4n(-c4ccc(Cl)cc4)c3=O)ccc21 [Example 47] | 559 nM
5 | 11.5 nM | 650 nM | 24.5 nM | COc1ccc(-c2c(N)c3ccc(C(F)(F)F)nc3n(-c3ccc(Cl)cc3)c2=O)cn1 [Example 20] | 48 nM
6 | 14.4 nM | 240 nM | 21.2 nM | Nc1c(-c2ccc3c(c2)OCCO3)c(=O)n(-c2ccc(Cl)cc2)c2nc(C(F)(F)F)ccc12 [Example 53] | –
7 | 13.4 nM | 490 nM | 18.6 nM | Cn1cc(-c2c(N)c3ccc(C(F)(F)F)nc3n(-c3ccc(Cl)cc3)c2=O)ccc1=O [Example 44] | 495 nM
8 | 16.2 nM | 270 nM | 22.9 nM | Nc1c(-c2ccc3ncsc3c2)c(=O)n(-c2ccc(Cl)cc2)c2nc(C(F)(F)F)ccc12 [Example 21] | 507 nM
9 | 18.4 nM | 3080 nM | – | Nc1c(-n2cncn2)c(=O)n(-c2ccc(Cl)cc2)c2nc(C(F)(F)F)ccc12 [Example 41] | –
10 | 16.2 nM | 760 nM | – | CS(=O)(=O)CCn1ncc2cc(-c3c(N)c4ccc(C(F)(F)F)nc4n(-c4ccc(Cl)cc4)c3=O)ccc21 [Example 52] | –
11 | 23.2 nM | 9730 nM | 345 nM | CNc1c(-n2cccn2)c(=O)n(-c2ccccc2)c2nc(C(F)(F)F)ccc12 [Example 15, 4-(methylamino)-1-phenyl-3-(1H-pyrazol-1-yl)-7-(trifluoromethyl)-1,8-naphthyridin-2(1H)-one] | –
12 | 16.6 nM | – | – | Nc1c(-c2ccc3nonc3c2)c(=O)n(-c2ccc(Cl)cc2)c2nc(C(F)(F)F)ccc12 [Example 69] | 663 nM
13 | 15.1 nM | 180 nM | 20.2 nM | Nc1c(-c2ccc3ncncc3c2)c(=O)n(-c2ccc(Cl)cc2)c2nc(C(F)(F)F)ccc12 [Example 46] | 251 nM
14 | 22 nM | 480 nM | – | Nc1ccc(-c2c(N)c3ccc(C(F)(F)F)nc3n(-c3ccc(Cl)cc3)c2=O)cc1 [Example 43] | –
15 | 15.4 nM | – | 13.4 nM | Cc1ccc(-n2c(=O)c(-c3ccco3)c(N)c3ccc(C(F)(F)F)nc32)cc1 [Example 31] | 430 nM
16 | 15 nM | 730 nM | 20.9 nM | Nc1c(-c2ccc3ncoc3c2)c(=O)n(-c2ccc(Cl)cc2)c2nc(C(F)(F)F)ccc12 [Example 22] | –
17 | 13.4 nM | 550 nM | 22.3 nM | Nc1c(-c2ccco2)c(=O)n(-c2ccc(Cl)cc2)c2nc(C(F)(F)F)ccc12 [Example 30, 4-amino-1-(4-chlorophenyl)-3-(furan-2-yl)-7-(trifluoromethyl)-1,8-naphthyridin-2(1H)-one] | –
18 | 18.1 nM | 750 nM | 16.3 nM | Nc1c(-c2ccc3nccnc3n2)c(=O)n(-c2ccc(Cl)cc2)c2nc(C(F)(F)F)ccc12 [Example 67] | –
19 | 16.2 nM | 960 nM | – | Nc1c(-c2ccc3c(c2)NC(=O)CO3)c(=O)n(-c2ccc(Cl)cc2)c2nc(C(F)(F)F)ccc12 [Example 54] | –
20 | 14.8 nM | 190 nM | 6.37 nM | Nc1c(-c2ccc3ncccc3c2)c(=O)n(-c2ccc(Cl)cc2)c2nc(C(F)(F)F)ccc12 [Example 45] | –
21 | 19.8 nM | 410 nM | – | Nc1c(-c2ccncn2)c(=O)n(-c2ccc(Cl)cc2)c2nc(C(F)(F)F)ccc12 [Example 39] | –
22 | 15.6 nM | 100 nM | 11.5 nM | COc1ccc(-c2c(N)c3ccc(C(F)(F)F)nc3n(-c3ccc(Cl)cc3)c2=O)cc1 [Example 24] | –
23 | 12.3 nM | 890 nM | 13.1 nM | Nc1c(-c2ccc3c(c2)OCO3)c(=O)n(-c2ccc(Cl)cc2)c2nc(C(F)(F)F)ccc12 [Example 19] | –
24 | 15 nM | 480 nM | 8.38 nM | Nc1c(-c2ccc(F)cc2)c(=O)n(-c2ccc(Cl)cc2)c2nc(C(F)(F)F)ccc12 [Example 42] | –
25 | 14.5 nM | 1110 nM | 17.8 nM | COc1cc(-c2c(N)c3ccc(C(F)(F)F)nc3n(-c3ccc(Cl)cc3)c2=O)ccn1 [Example 56] | –
26 | 17.8 nM | 10200 nM | 617 nM | CNc1c(-c2ccc(F)cc2)c(=O)n(-c2ccccc2)c2nc(C(F)(F)F)ccc12 [Example 26] | –
27 | 16.3 nM | 500 nM | 23.3 nM | Nc1c(-c2ccc3nnccc3c2)c(=O)n(-c2ccc(Cl)cc2)c2nc(C(F)(F)F)ccc12 [Example 55] | –
28 | 40.5 nM | – | 494 nM | CNc1c(-c2nnco2)c(=O)n(-c2ccccc2)c2nc(C(F)(F)F)ccc12 [Example 6, 4-(methylamino)-3-(1,3,4-oxadiazol-2-yl)-1-phenyl-7-(trifluoromethyl)-1,8-naphthyridin-2(1H)-one] | –
29 | 15.4 nM | – | 9.77 nM | COc1cc(-c2c(N)c3ccc(C(F)(F)F)nc3n(-c3ccc(C)cc3)c2=O)ccn1 [Example 87] | –
30 | 17.5 nM | 1620 nM | 231 nM | CNc1c(-c2ccc3ncn(C)c3c2)c(=O)n(-c2ccccc2)c2nc(C(F)(F)F)ccc12 [Example 27] | –

Row | Compound | IC50 (MAT2a) | IC50 (KP-4 cells) | IC50 (HCT116 MTAP-/- cells) | IC50 (DOHH-2 cells)
31 | Nc1c(-n2cccc2)c(=O)n(-c2ccc(Cl)cc2)c2nc(C(F)(F)F)ccc12 [Example 3, 4-amino-1-(4-chlorophenyl)-3-(1H-pyrrol-1-yl)-7-(trifluoromethyl)-1,8-naphthyridin-2(1H)-one] | 12.7 nM | 170 nM | 12.7 nM | –
